Among the data in patent US20240150293A1, “SPIROCYCLOHEXANE DERIVATIVES, PHARMACEUTICAL COMPOSITIONS CONTAINING THEM AND THEIR USES AS ANTI-APOPTOTIC INHIBITORS” (LES LABORATOIRES SERVIER, priority 2021, published 2024) are IC50 and Ki values, retold here.

The Ki is the equilibrium dissociation constant of an inhibitor or competing ligand from its target.

Experiment [1] has as its system H929 multiple myeloma tumor line. The experiment can be described thus: In vitro cytotoxicity, MTT assay (Example B, Method A). Particulars: Homo sapiens, NCI-H929, 48 h, H929 cells, 48 hours exposure, read-out: C50. The experiment is classed as cell-based. The method, then: The cytotoxicity studies were carried out on the H929 multiple myeloma tumor line.
The cells are distributed onto microplates and exposed to the test compounds for 48 hours. The cell viability is then quantified by a colorimetric assay, the Microculture Tetrazolium Assay (Carmichael et al, Cancer Res. 1987, 47, 939-942).
The results are expressed in C50 which means concentration corresponding to […] of effect/inhibition.
A general note: Tetrazolium dyes change colour on reduction, which living cells bring about.

In the next experiment the target is Mcl-1 protein (UniProtKB Q07820) (Homo sapiens (Human), UniProt Q07820). The experiment can be described thus: Inhibition of Mcl-1 by the fluorescence polarisation assay (Example A, Method A). In kind it is binding. Particulars: fluorescence polarization assay. The method in brief:
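Protein (5 nM) and fluorescein-tagged peptide tracer (1 nM) incubated with 11-point compound series for 2 h at room temperature in HEPES/NaCl/Tween 20 buffer, pH 7.4, 5% DMSO. Displacement read as decrease in polarisation; IC50 fitted by 4-parameter logistic, converted to Ki (cKi or eKi).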
Background: Polarisation of emitted light reports the rotation of a fluorescent probe.

Structures are written as SMILES.

Chain of Mcl-1 protein (Q07820 whole entry): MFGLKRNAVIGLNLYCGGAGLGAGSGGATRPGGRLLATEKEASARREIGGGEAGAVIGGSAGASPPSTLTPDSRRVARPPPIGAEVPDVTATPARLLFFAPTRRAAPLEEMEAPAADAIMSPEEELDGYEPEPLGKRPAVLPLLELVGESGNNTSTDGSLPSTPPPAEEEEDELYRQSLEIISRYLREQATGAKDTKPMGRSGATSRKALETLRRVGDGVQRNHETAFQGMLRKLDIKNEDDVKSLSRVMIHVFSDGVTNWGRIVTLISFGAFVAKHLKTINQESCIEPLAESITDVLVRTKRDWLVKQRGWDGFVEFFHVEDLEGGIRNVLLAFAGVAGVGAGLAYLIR

Consider `CCC1Cc2ccccc2C12CCC(Nc1cccc(Br)c1)(C(=O)O)CC2` (centres unmarked) [Example 147, 4-(3-bromoanilino)-2′-ethyl-2′,3′-dihydrospiro[cyclohexane-1,1′-indene]-4-carboxylic acid], for which the IC50 in experiment [1] was determined as 30000 nM. Besides, the inhibition constant Ki at Mcl-1 protein amounted to 816 nM.

With `O=C(O)[C@]1(Nc2cccc(Cl)c2)CC[C@]2(CC1)C(C#CCOc1ccccc1)=Cc1ccccc12` [Example 172, (1s,4s)-4-(3-chloroanilino)-2′-(3-phenoxyprop-1-yn-1-yl)spiro[cyclohexane-1,1′-indene]-4-carboxylic acid], the IC50 in experiment [1] came out at 18700 nM. For the same compound, on Mcl-1 protein, the inhibitory constant (Ki) was 55.8 nM.

As to `O=C(O)[C@]1(Nc2cccc(Cl)c2)CC[C@]2(CC1)C(CCOc1ccncc1F)=Cc1ccccc12` [Example 190, (1r,4r)-4-(3-chloroanilino)-2′-{2-[(3-fluoropyridin-4-yl)oxy]ethyl}spiro[cyclohexane-1,1′-indene]-4-carboxylic acid], the IC50 in experiment [1] is 6400 nM. Moreover, the inhibitory constant (Ki) on Mcl-1 protein was determined as 44.3 nM.

As to `O=C(O)[C@]1(Nc2cccc(Cl)c2)CC[C@]2(CC1)C(CCOc1ccnc(F)c1)=Cc1ccccc12` [Example 191, (1r,4r)-4-(3-chloroanilino)-2′-{2-[(2-fluoropyridin-4-yl)oxy]ethyl}spiro[cyclohexane-1,1′-indene]-4-carboxylic acid], the IC50 in experiment [1] is 5720 nM. On Mcl-1 protein, the Ki was determined as 69.7 nM.

On to `O=C(O)[C@]1(Nc2cccc(Cl)c2)CC[C@]2(CC1)C(CCOc1cccc3[nH]ccc13)=Cc1ccccc12` [Example 192, (1r,4r)-4-(3-chloroanilino)-2′-{2-[(1H-indol-4-yl)oxy]ethyl}spiro[cyclohexane-1,1′-indene]-4-carboxylic acid], for which the IC50 in experiment [1] came to 4190 nM. The Ki on Mcl-1 protein was found to be 61.5 nM.

Consider `O=C(O)[C@]1(Nc2cccc(Cl)c2)CC[C@@]2(CC1)c1ccccc1C[C@H]2c1cccc(Oc2ccccc2)c1` [Example 323, (1r,2′S,4S)-4-(3-chloroanilino)-2′-(3-phenoxyphenyl)-2′,3′-dihydrospiro[cyclohexane-1,1′-indene]-4-carboxylic acid], for which the IC50 in experiment [1] is 10500 nM. Moreover, the inhibition constant Ki on Mcl-1 protein stood at 106 nM.

Take `O=C(O)[C@]1(Nc2cccc(Cl)c2)CC[C@@]2(CC1)c1ccccc1C[C@H]2c1cccc(OCc2ccccc2)c1` [Example 332, (1r,2′S,4S)-2′-[3-(benzyloxy)phenyl]-4-(3-chloroanilino)-2′,3′-dihydrospiro[cyclohexane-1,1′-indene]-4-carboxylic acid]: the IC50 in experiment [1] turned out to be 16400 nM. The inhibitory constant (Ki) on Mcl-1 protein came to 475 nM.

With `O=C(O)[C@]1(Nc2cccc(Cl)c2)CC[C@@]2(CC1)c1ccccc1C[C@H]2c1cc2ccccc2o1` [Example 337, (1r,2′R,4R)-2′-(1-benzofuran-2-yl)-4-(3-chloroanilino)-2′,3′-dihydrospiro[cyclohexane-1,1′-indene]-4-carboxylic acid], the IC50 in experiment [1] was found to be 30000 nM. The inhibitory constant (Ki) on Mcl-1 protein came to 247 nM.

Turning to `O=C(O)[C@]1(Nc2cccc(Cl)c2)CC[C@]2(CC1)C(c1ccc(Oc3ccccc3)cc1)=Cc1ccccc12` [Example 341, (1s,4s)-4-(3-chloroanilino)-2′-(4-phenoxyphenyl)spiro[cyclohexane-1,1′-indene]-4-carboxylic acid], the IC50 in experiment [1] came out at 9260 nM. Moreover, the inhibition constant Ki at Mcl-1 protein was 159 nM.

In the case of `O=C(O)[C@]1(Nc2cccc(Cl)c2)CC[C@@]2(CC1)c1ccccc1C[C@H]2c1ccc(Oc2ccccc2)cc1` [Example 358, (1r,2′S,4S)-4-(3-chloroanilino)-2′-(4-phenoxyphenyl)-2′,3′-dihydrospiro[cyclohexane-1,1′-indene]-4-carboxylic acid], the IC50 in experiment [1] is 7430 nM. Also, the inhibitory constant (Ki) on Mcl-1 protein is 62.2 nM.

In the case of `O=C(O)[C@]1(Nc2cccc(Cl)c2)CC[C@]2(CC1)C(c1cccc(OCc3ccncc3)c1)=Cc1ccccc12` [Example 362, (1s,4s)-4-(3-chloroanilino)-2′-{3-[(pyridin-4-yl)methoxy]phenyl}spiro[cyclohexane-1,1′-indene]-4-carboxylic acid], the IC50 in experiment [1] is 21600 nM. In addition, at Mcl-1 protein, the Ki is 174 nM.

For the compound `O=C(O)[C@]1(Nc2cccc(Cl)c2)CC[C@]2(CC1)C(c1cccc(OCc3cccnc3)c1)=Cc1ccccc12` [Example 363, (1s,4s)-4-(3-chloroanilino)-2′-{3-[(pyridin-3-yl)methoxy]phenyl}spiro[cyclohexane-1,1′-indene]-4-carboxylic acid], in experiment [1], the IC50 amounted to 30000 nM. Also, the Ki on Mcl-1 protein was 227 nM.

Take `O=C(O)[C@]1(Nc2cccc(Cl)c2)CC[C@]2(CC1)C(CCCCc1ccccc1)=Cc1ccccc12` [Example 393, (1r,4r)-4-(3-chloroanilino)-2′-(4-phenylbutyl)spiro[cyclohexane-1,1′-indene]-4-carboxylic acid]: the IC50 in experiment [1] came to 12000 nM. Besides, the Ki at Mcl-1 protein was 150 nM.

Consider `O=C(O)[C@]1(Nc2cccc(Cl)c2)CC[C@]2(CC1)C(COCCc1ccccc1)=Cc1ccccc12` [Example 409, (1s,4s)-4-(3-chloroanilino)-2′-[(2-phenylethoxy)methyl]spiro[cyclohexane-1,1′-indene]-4-carboxylic acid], for which the IC50 in experiment [1] amounted to 30000 nM. At Mcl-1 protein, the inhibitory constant (Ki) was 155 nM.

Regarding `O=C(O)[C@]1(Nc2cccc(Cl)c2)CC[C@@]2(CC1)c1ccccc1CC2CCCOc1ccncc1` (some centres unmarked) [Example 426, (1r,4r)-4-(3-chloroanilino)-2′-{3-[(pyridin-4-yl)oxy]propyl}-2′,3′-dihydrospiro[cyclohexane-1,1′-indene]-4-carboxylic acid], the IC50 in experiment [1] worked out at 16500 nM. The Ki on Mcl-1 protein turned out to be 55.3 nM.

Regarding `O=C(O)[C@]1(Nc2cccc(Cl)c2)CC[C@@]2(CC1)c1ccccc1C[C@H]2CCCOc1ccnc2ccsc12` [Example 439, (1r,2′R,4R)-4-(3-chloroanilino)-2′-{3-[(thieno[3,2-b]pyridin-7-yl)oxy]propyl}-2′,3′-dihydrospiro[cyclohexane-1,1′-indene]-4-carboxylic acid], in experiment [1], the IC50 was 3880 nM. At Mcl-1 protein, the Ki stood at 68.6 nM.

`O=C(O)[C@]1(Nc2cccc(Cl)c2)CC[C@@]2(CC1)c1ccccc1C[C@@H]2CCCOc1ccnc2ccsc12` [Example 440, (1r,2′S,4S)-4-(3-chloroanilino)-2′-{3-[(thieno[3,2-b]pyridin-7-yl)oxy]propyl}-2′,3′-dihydrospiro[cyclohexane-1,1′-indene]-4-carboxylic acid]: in experiment [1], the IC50 is 3480 nM. In addition, the Ki on Mcl-1 protein was determined as 47 nM.

As to `O=C(O)[C@]1(Nc2cccc(Cl)c2)CC[C@]2(CC1)C(CCCOc1ccnc3ccsc13)=Cc1ccccc12` [Example 442, (1r,4r)-4-(3-chloroanilino)-2′-{3-[(thieno[3,2-b]pyridin-7-yl)oxy]propyl}spiro[cyclohexane-1,1′-indene]-4-carboxylic acid], in experiment [1], the IC50 stood at 5790 nM. Moreover, on Mcl-1 protein, the inhibition constant (Ki) turned out to be 107 nM.

For `O=C(O)[C@]1(Nc2cccc(Cl)c2)CC[C@@]2(CC1)c1ccccc1CC2CCCOc1ccnc2ccccc12` (some centres unmarked) [Example 444, (1r,4r)-4-(3-chloroanilino)-2′-{3-[(quinolin-4-yl)oxy]propyl}-2′,3′-dihydrospiro[cyclohexane-1,1′-indene]-4-carboxylic acid], the IC50 in experiment [1] came to 5440 nM. In addition, at Mcl-1 protein, the inhibition constant (Ki) amounted to 85.2 nM.
